Assay results taken from patent US20250034159A1, “INHIBITORS OF EPIDERMAL GROWTH FACTOR RECEPTOR” (ORIC Pharmaceuticals, Inc., priority 2021, published 2025).

Key:
[1] = target: recombinant human EGFR exon 19 deletion/C797S double mutant protein (Homo sapiens (Human), UniProt P00533, C797S/DEL746-750); assay: Biological Activity Assay C: biochemical assay against EGFR exon 19 deletion/C797S protein (EGFR d19/CS)
In short: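 IC50 values were fitted with a 4-parameter model to reaction slopes taken from 90 kinetic reads spaced 120 s apart. The Phosphosens sensor/ATP working solution was 40 uM/4 mM, and compound was dosed as 16-point dilutions at 2.5% final DMSO.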

Ba/F3_EGFR WT cells = assay: Biological Activity Assay D: BaF3 cell proliferation assay, EGFR wild-type (BaF3 WT); type: cell-based; conditions: Ba/F3 EGFR; Ba/F3_EGFR WT cells, ~72 hours, CellTiter-Glo; read-out: BaF3 WT IC50
BaF3_EGFR LR/CS cells = assay: Biological Activity Assay D: BaF3 cell proliferation assay, EGFR L858R/C797S mutant (BaF3 LR/CS); type: cell-based; conditions: Ba/F3 EGFR; BaF3_EGFR LR/CS cells, ~72 hours, CellTiter-Glo; read-out: BaF3 LR/CS IC50
BaF3_EGFR d19/CS cells = assay: Biological Activity Assay D: BaF3 cell proliferation assay, EGFR exon 19 deletion/C797S (BaF3 d19/CS); type: cell-based; conditions: Ba/F3 EGFR; BaF3_EGFR d19/CS cells, ~72 hours, CellTiter-Glo; read-out: BaF3 d19/CS IC50

Chain of recombinant human EGFR exon 19 deletion/C797S double mutant protein (P00533 other isoform, or with tags, fused parts or gaps C797S/del 1-668/del 746-750 limits assumed): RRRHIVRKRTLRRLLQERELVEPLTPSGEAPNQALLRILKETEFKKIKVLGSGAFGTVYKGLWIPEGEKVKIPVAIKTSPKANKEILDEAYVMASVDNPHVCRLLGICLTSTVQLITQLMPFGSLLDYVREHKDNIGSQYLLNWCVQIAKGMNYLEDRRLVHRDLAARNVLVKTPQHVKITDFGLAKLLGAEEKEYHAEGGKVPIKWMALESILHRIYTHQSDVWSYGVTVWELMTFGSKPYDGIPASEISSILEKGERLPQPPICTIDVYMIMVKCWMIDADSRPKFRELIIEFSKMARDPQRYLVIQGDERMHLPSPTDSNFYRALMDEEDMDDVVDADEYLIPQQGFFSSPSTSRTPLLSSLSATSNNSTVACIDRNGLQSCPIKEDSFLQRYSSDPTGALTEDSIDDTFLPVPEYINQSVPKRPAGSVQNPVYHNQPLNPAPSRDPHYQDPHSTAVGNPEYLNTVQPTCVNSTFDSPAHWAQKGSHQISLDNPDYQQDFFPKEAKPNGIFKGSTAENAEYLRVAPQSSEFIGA

IC50 [1]	IC50 (Ba/F3_EGFR WT cells)	IC50 (BaF3_EGFR LR/CS cells)	IC50 (BaF3_EGFR d19/CS cells)	Compound
0.36 nM	1440 nM	158 nM	103 nM	O=S1(=O)CC(n2cc(-c3ncnc4oc(-c5ccns5)cc34)c(-c3ccc(F)cc3)n2)C1 [Example 218, 3-{3-(4-fluorophenyl)-4-[6-(1,2-thiazol-5-yl)furo[2,3-d]pyrimidin-4-yl]-1H-pyrazol-1-yl}-1λ6-thietane-1,1-dione]
0.26 nM	2340 nM	30.8 nM	83.5 nM	CS(=O)(=O)CCCn1cc(-c2ncnc3[nH]c(-c4ccccc4)nc23)c(-c2ccc(F)cc2)n1 [Example 215, 6-{3-(4-fluorophenyl)-1-[3-(methanesulfonyl)propyl]-1H-pyrazol-4-yl}-8-phenyl-9H-purine]
0.74 nM	2500 nM	35 nM	73.9 nM	CC1(C)C[C@@H](n2cc(-c3ncnc4oc(-c5ccccc5)cc34)c(-c3ccc(F)cc3)n2)CO1 (single isomer, unassigned) [Example 237]
0.228 nM	321 nM	4.86 nM	3.75 nM	COc1ncccc1-c1cc2c(-c3cn(CCC#N)nc3-c3ccc(F)cc3)ncnc2o1 [Example 285, 3-{3-(4-fluorophenyl)-4-[6-(2-methoxypyridin-3-yl)furo[2,3-d]pyrimidin-4-yl]-1H-pyrazol-1-yl}propanenitrile]
0.16 nM	924 nM	11.2 nM	17.1 nM	Cc1nc(-c2cc3c(-c4cn(C5CS(=O)(=O)C5)nc4-c4ccc(F)cc4)ncnc3o2)cs1 [Example 236, 3-{3-(4-fluorophenyl)-4-[6-(2-methyl-1,3-thiazol-4-yl)furo[2,3-d]pyrimidin-4-yl]-1H-pyrazol-1-yl}-16-thietane-1,1-dione]
0.2 nM	745 nM	8.08 nM	12.8 nM	Cc1nn(C)cc1-c1cc2c(-c3cn(CC(C)(C)O)nc3-c3ccc(F)cc3)ncnc2o1 [Example 251, 1-{4-[6-(1,3-dimethyl-1H-pyrazol-4-yl)furo[2,3-d]pyrimidin-4-yl]-3-(4-fluorophenyl)-1H-pyrazol-1-yl}-2-methylpropan-2-ol]
0.19 nM	403 nM	5.23 nM	11.2 nM	Cn1cc(-c2cc3c(-c4cn([C@H]5C[C@@H](S(C)(=O)=O)C5)nc4-c4ccc(F)cc4)ncnc3o2)cn1 [Example 256, 4-{3-(4-fluorophenyl)-1-[(1s,3s)-3-(methanesulfonyl)cyclobutyl]-1H-pyrazol-4-yl}-6-(1-methyl-1H-pyrazol-4-yl)furo[2,3-d]pyrimidine]
0.38 nM	663 nM	59.8 nM	94.3 nM	CNC(=O)Cn1cc(-c2ncnc3oc(-c4ccccc4)cc23)c(-c2ccc(F)cc2)n1 [Example 143, 2-[3-(4-Fluorophenyl)-4-(6-phenylfuro[2,3-d]pyrimidin-4-yl)-1H-pyrazol-1-yl]-N-methylacetamide]
0.27 nM	619 nM	10.1 nM	22.1 nM	CS(=O)(=O)[C@H]1C[C@@H](n2cc(-c3ncnc4oc(-c5ccccc5)cc34)c(-c3ccc(F)cc3)n2)C1 [Example 163, 4-{3-(4-fluorophenyl)-1-[(1s,3s)-3-(methanesulfonyl)cyclobutyl]-1H-pyrazol-4-yl}-6-phenylfuro[2,3-d]pyrimidine]
0.14 nM	565 nM	4.93 nM	13.1 nM	N=S1(=O)CCC(n2cc(-c3ncnc4oc(-c5ccccc5)cc34)c(-c3ccc(F)cc3)n2)C1 (centres unmarked) [Example 161, 3-[3-(4-fluorophenyl)-4-(6-phenylfuro[2,3-d]pyrimidin-4-yl)-1H-pyrazol-1-yl]-1-imino-1λ6-thiolan-1-one]
0.252 nM	1600 nM	20.6 nM	14.1 nM	COc1ncccc1-c1cc2c(-c3cn(CC(C)(C)O)nc3-c3ccc(F)cc3)ncnc2o1 [Example 271, 1-{3-(4-fluorophenyl)-4-[6-(2-methoxypyridin-3-yl)furo[2,3-d]pyrimidin-4-yl]-1H-pyrazol-1-yl}-2-methylpropan-2-ol]
